According to PubChem BioAssay (NCI):
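Compound exposure: 48 hours, 5 concentrations, 96-well plates. TGI marks complete inhibition of growth.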

Test system: SK-MEL-28 melanoma
Experiment: inhibition of tumour cell growth, NCI panel, 48 h

**Q.** `CCCC1=C(CC)C(C(=O)Nc2c(C)cccc2C)=NC(S)N1` (stereo not drawn) was tested. Which TGI did it give?
**A.** > 100 µM

Test system: NCI-H23 lung
Experiment: inhibition of tumour cell growth, NCI panel, 48 h

**Q.** How did the TGI turn out when `Clc1cc(Cl)c2ns[s+]c2c1Cl` was run?
**A.** 85.2 µM

**Q.** With `C=C(C)[C@H]1Cc2c(ccc3c2O[C@@H]2COc4cc(OC)c(OC)cc4[C@@H]2C3=O)O1` as the compound, how does the TGI read?
**A.** 14.1 µM

**Q.** `COC(=O)[C@@]12C(=O)C=CC(=O)C1C1C(=CC2C)OC2OC3(CCCCC3)OC21` (stereo partly drawn) was tested. Which TGI did it give?
**A.** 39.9 µM

**Q.** Which TGI does the source give for `CC1=CCC(O)C=CC(C)C(O)C(C)C=C(C)C(=O)c2c(O)c(C)cc3c2C(=O)C(N)=C(NC(=O)/C=C\C=C/C=CC(C)C(O)CC1=O)C3=O` (stereo not drawn) here?
**A.** > 100 µM

**Q.** With `COc1ccc(S(=O)(=O)c2ccccc2[N+](=O)[O-])cc1` as the compound, how does the TGI read?
**A.** > 100 µM

**Q.** For `CCOC(=O)C1SC(=Nc2ccc(C)c(C)c2)N=C1C` (stereo not drawn), which TGI is on record?
**A.** > 100 µM

**Q.** For `CCCC1=C(CC)C(C(=O)Nc2c(C)cccc2C)=NC(S)N1` (stereo not drawn), which TGI is on record?
**A.** > 100 µM

Test system: MCF7 breast
Experiment: inhibition of tumour cell growth, NCI panel, 48 h

**Q.** How did the TGI turn out when `C=C(C)[C@H]1Cc2c(ccc3c2O[C@@H]2COc4cc(OC)c(OC)cc4[C@@H]2C3=O)O1` was run?
**A.** > 84.2 µM

Test system: HCT-116 colon
Experiment: inhibition of tumour cell growth, NCI panel, 48 h

**Q.** Which TGI does the source give for `Clc1cc(Cl)c2ns[s+]c2c1Cl` here?
**A.** > 100 µM

**Q.** Which TGI does the source give for `C=C(C)[C@H]1Cc2c(ccc3c2O[C@@H]2COc4cc(OC)c(OC)cc4[C@@H]2C3=O)O1` here?
**A.** 23.5 µM

**Q.** How did the TGI turn out when `COC(=O)[C@@]12C(=O)C=CC(=O)C1C1C(=CC2C)OC2OC3(CCCCC3)OC21` (stereo partly drawn) was run?
**A.** 29.8 µM

**Q.** Which TGI does the source give for `CC1=CCC(O)C=CC(C)C(O)C(C)C=C(C)C(=O)c2c(O)c(C)cc3c2C(=O)C(N)=C(NC(=O)/C=C\C=C/C=CC(C)C(O)CC1=O)C3=O` (stereo not drawn) here?
**A.** 54.4 µM

**Q.** Which TGI does the source give for `COc1ccc(S(=O)(=O)c2ccccc2[N+](=O)[O-])cc1` here?
**A.** > 100 µM

**Q.** How did the TGI turn out when `CCCC1=C(CC)C(C(=O)Nc2c(C)cccc2C)=NC(S)N1` (stereo not drawn) was run?
**A.** > 100 µM

Test system: SNB-78 CNS
Experiment: inhibition of tumour cell growth, NCI panel, 48 h

**Q.** Which TGI does the source give for `Clc1cc(Cl)c2ns[s+]c2c1Cl` here?
**A.** 14.8 µM

**Q.** With `C=C(C)[C@H]1Cc2c(ccc3c2O[C@@H]2COc4cc(OC)c(OC)cc4[C@@H]2C3=O)O1` as the compound, how does the TGI read?
**A.** 45.3 µM

**Q.** For `COC(=O)[C@@]12C(=O)C=CC(=O)C1C1C(=CC2C)OC2OC3(CCCCC3)OC21` (stereo partly drawn), which TGI is on record?
**A.** 42.3 µM

**Q.** For `CC1=CCC(O)C=CC(C)C(O)C(C)C=C(C)C(=O)c2c(O)c(C)cc3c2C(=O)C(N)=C(NC(=O)/C=C\C=C/C=CC(C)C(O)CC1=O)C3=O` (stereo not drawn), which TGI is on record?
**A.** > 100 µM

**Q.** With `CCCC1=C(CC)C(C(=O)Nc2c(C)cccc2C)=NC(S)N1` (stereo not drawn) as the compound, how does the TGI read?
**A.** > 100 µM

Test system: EKVX NSCLC
Experiment: inhibition of tumour cell growth, NCI panel, 48 h

**Q.** With `Clc1cc(Cl)c2ns[s+]c2c1Cl` as the compound, how does the TGI read?
**A.** > 100 µM

**Q.** For `C=C(C)[C@H]1Cc2c(ccc3c2O[C@@H]2COc4cc(OC)c(OC)cc4[C@@H]2C3=O)O1`, which TGI is on record?
**A.** > 88.4 µM

**Q.** Which TGI does the source give for `COC(=O)[C@@]12C(=O)C=CC(=O)C1C1C(=CC2C)OC2OC3(CCCCC3)OC21` (stereo partly drawn) here?
**A.** 37.8 µM

**Q.** For `CC1=CCC(O)C=CC(C)C(O)C(C)C=C(C)C(=O)c2c(O)c(C)cc3c2C(=O)C(N)=C(NC(=O)/C=C\C=C/C=CC(C)C(O)CC1=O)C3=O` (stereo not drawn), which TGI is on record?
**A.** > 100 µM

**Q.** For `COc1ccc(S(=O)(=O)c2ccccc2[N+](=O)[O-])cc1`, which TGI is on record?
**A.** > 100 µM

**Q.** `CCOC(=O)C1SC(=Nc2ccc(C)c(C)c2)N=C1C` (stereo not drawn) was tested. Which TGI did it give?
**A.** > 100 µM

**Q.** With `CCCC1=C(CC)C(C(=O)Nc2c(C)cccc2C)=NC(S)N1` (stereo not drawn) as the compound, how does the TGI read?
**A.** > 100 µM

Test system: A549 NSCLC
Experiment: inhibition of tumour cell growth, NCI panel, 48 h

**Q.** Which TGI does the source give for `Clc1cc(Cl)c2ns[s+]c2c1Cl` here?
**A.** > 100 µM

**Q.** How did the TGI turn out when `C=C(C)[C@H]1Cc2c(ccc3c2O[C@@H]2COc4cc(OC)c(OC)cc4[C@@H]2C3=O)O1` was run?
**A.** > 100 µM

**Q.** `COC(=O)[C@@]12C(=O)C=CC(=O)C1C1C(=CC2C)OC2OC3(CCCCC3)OC21` (stereo partly drawn) was tested. Which TGI did it give?
**A.** 36.3 µM

**Q.** For `CC1=CCC(O)C=CC(C)C(O)C(C)C=C(C)C(=O)c2c(O)c(C)cc3c2C(=O)C(N)=C(NC(=O)/C=C\C=C/C=CC(C)C(O)CC1=O)C3=O` (stereo not drawn), which TGI is on record?
**A.** > 100 µM

**Q.** How did the TGI turn out when `COc1ccc(S(=O)(=O)c2ccccc2[N+](=O)[O-])cc1` was run?
**A.** > 100 µM

**Q.** How did the TGI turn out when `CCOC(=O)C1SC(=Nc2ccc(C)c(C)c2)N=C1C` (stereo not drawn) was run?
**A.** > 100 µM

**Q.** With `CCCC1=C(CC)C(C(=O)Nc2c(C)cccc2C)=NC(S)N1` (stereo not drawn) as the compound, how does the TGI read?
**A.** > 100 µM

Test system: XF 498 CNS
Experiment: inhibition of tumour cell growth, NCI panel, 48 h

**Q.** `Clc1cc(Cl)c2ns[s+]c2c1Cl` was tested. Which TGI did it give?
**A.** > 100 µM

**Q.** `C=C(C)[C@H]1Cc2c(ccc3c2O[C@@H]2COc4cc(OC)c(OC)cc4[C@@H]2C3=O)O1` was tested. Which TGI did it give?
**A.** 0.302 µM

**Q.** With `CC1=CCC(O)C=CC(C)C(O)C(C)C=C(C)C(=O)c2c(O)c(C)cc3c2C(=O)C(N)=C(NC(=O)/C=C\C=C/C=CC(C)C(O)CC1=O)C3=O` (stereo not drawn) as the compound, how does the TGI read?
**A.** > 100 µM

**Q.** With `CCOC(=O)C1SC(=Nc2ccc(C)c(C)c2)N=C1C` (stereo not drawn) as the compound, how does the TGI read?
**A.** > 100 µM

**Q.** How did the TGI turn out when `CCCC1=C(CC)C(C(=O)Nc2c(C)cccc2C)=NC(S)N1` (stereo not drawn) was run?
**A.** > 100 µM

Test system: 786-0 renal
Experiment: inhibition of tumour cell growth, NCI panel, 48 h

**Q.** Which TGI does the source give for `Clc1cc(Cl)c2ns[s+]c2c1Cl` here?
**A.** > 100 µM

**Q.** `C=C(C)[C@H]1Cc2c(ccc3c2O[C@@H]2COc4cc(OC)c(OC)cc4[C@@H]2C3=O)O1` was tested. Which TGI did it give?
**A.** > 86.2 µM

**Q.** `COC(=O)[C@@]12C(=O)C=CC(=O)C1C1C(=CC2C)OC2OC3(CCCCC3)OC21` (stereo partly drawn) was tested. Which TGI did it give?
**A.** 32.4 µM

**Q.** With `CC1=CCC(O)C=CC(C)C(O)C(C)C=C(C)C(=O)c2c(O)c(C)cc3c2C(=O)C(N)=C(NC(=O)/C=C\C=C/C=CC(C)C(O)CC1=O)C3=O` (stereo not drawn) as the compound, how does the TGI read?
**A.** > 100 µM

**Q.** Which TGI does the source give for `CCOC(=O)C1SC(=Nc2ccc(C)c(C)c2)N=C1C` (stereo not drawn) here?
**A.** > 100 µM

**Q.** For `CCCC1=C(CC)C(C(=O)Nc2c(C)cccc2C)=NC(S)N1` (stereo not drawn), which TGI is on record?
**A.** > 100 µM

Test system: A498 renal
Experiment: inhibition of tumour cell growth, NCI panel, 48 h

**Q.** `Clc1cc(Cl)c2ns[s+]c2c1Cl` was tested. Which TGI did it give?
**A.** > 100 µM

**Q.** With `C=C(C)[C@H]1Cc2c(ccc3c2O[C@@H]2COc4cc(OC)c(OC)cc4[C@@H]2C3=O)O1` as the compound, how does the TGI read?
**A.** 63.3 µM

**Q.** `COC(=O)[C@@]12C(=O)C=CC(=O)C1C1C(=CC2C)OC2OC3(CCCCC3)OC21` (stereo partly drawn) was tested. Which TGI did it give?
**A.** 32.2 µM
